In US20260053811A1, “METHODS OF TREATING HYPERTENSION IN OBESE SUBJECTS” (Mineralys Therapeutics, Inc., priority 2022, published 2026):
Like-named read-outs stand apart in the source and are kept apart here. Marks after values point to notes of the source that are not given here.

Legend:
Assay type in all cases: in vivo, human
11-deoxycorticosterone = assay: Serum 11-deoxycorticosterone (pharmacodynamic response); settings: for 11-Deoxycorticosterone, Mean (SD) Observed / 11-Deoxycorticosterone, Mean (SD) Percent Change from Baseline: Part 1; for 11-Deoxycorticosterone, Mean Observed / 11-Deoxycorticosterone, Mean Percent Change from Baseline: Part 2
Description: (§1) PK/PD Analysis Set includes all subjects in the SAF who have sufficient data available for the analysis of pharmacokinetic and pharmacodynamic measurements. In the analyses based on PKPD, subjects will be analyzed according to the actual treatment received.

hypertensive subjects [1] = assay: Serum potassium; settings: for Increase in potassium levels relative to baseline: Week 8; for Individuals with increased serum K+, Mild 5.6-6.0 mMol/L (number) / Individuals with increased serum K+, Mild 5.6-6.0 mMol/L (percent) / Individuals with increased serum K+, Moderate 6.1-6.5 mMol/L / Individuals with increased serum K+, Severe >6.5 mMol/L: during treatment
Description: (§2) Safety endpoints of this study are: • (a) Incidence and severity of all spontaneously reported adverse events (AEs) • (b) Changes in vital signs (standing SBP, standing DBP, body temperature, heart rate, and respiratory rate) • (c) Changes in electrocardiogram parameters (including cardiac intervals: PR, QRS, QT, and corrected QT interval using Fridericia's formula) • (d) Changes in clinical laboratory assessments (hematology, chemistry, coagulation, and urinalysis) • (e) Change in office-measured SBP from Study Week 8 (end-of-treatment period to end of follow up (i.e. end of Study Week 12 for Part 1 and end of Study 10 for Part 2).
The Safety Analysis Set includes all enrolled subjects who received at least one dose of study treatment (MLS-101 or placebo). In analyses performed on the Safety Analysis Set, subjects will be analyzed according to their actual treatment received.

hypertensive subjects [2] = assay: Vital signs, physical examination, ECG parameters; settings: Parts 1 and 2
Description: as §2

[3] = Pharmacokinetics (plasma Cmax, AUC, Tmax, t1/2, trough concentrations); settings: for Trough Plasma Concentration, Median / concentration at 7 day: Day 7; for concentration at 28 day: Day 28
Description: Pharmacokinetic endpoints of this study are PK parameters, including, of area under the plasma concentration versus time curve (AUC), maximum plasma concentration (Cmax), time to maximum concentration (Tmax), and half-life (t1/2) will be summarized descriptively for Randomization (baseline) and Study Weeks 1, 4, and 8
as §1

[4] = human, plasma, oral, 12.5 mg, 12.5 mg BID, read-out: Trough Plasma Concentration, Mean (SD)
[5] = human, plasma, oral, 12.5 mg, 12.5 mg QD, read-out: Trough Plasma Concentration, Mean (SD)

## CC(=O)N[C@H]1CC[C@H](NC(=O)CN2CCN(c3nncc(-c4ccc(C)cc4)n3)CC2)CC1 [Compound A HBr]
11-deoxycorticosterone; Wk 4, 12.5 mg BID
  11-Deoxycorticosterone, Mean (SD) Observed: 9.0 (3.0) ng/dL
  11-Deoxycorticosterone, Mean (SD) Percent Change from Baseline: 12.50 (37.50) %
11-deoxycorticosterone; Wk 4, 12.5 mg QD
  11-Deoxycorticosterone, Mean (SD) Observed: 11.1 (5.5) ng/dL
  11-Deoxycorticosterone, Mean (SD) Percent Change from Baseline: 31.41 (60.95) %
11-deoxycorticosterone; Wk 4, 25 mg BID
  11-Deoxycorticosterone, Mean (SD) Observed: 13.7 (13.9) ng/dL
  11-Deoxycorticosterone, Mean (SD) Percent Change from Baseline: 71.63 (173.69) %
11-deoxycorticosterone; Wk 4, 50 mg QD
  11-Deoxycorticosterone, Mean (SD) Observed: 8.0 (0.0) ng/dL
  11-Deoxycorticosterone, Mean (SD) Percent Change from Baseline: −2.66 (9.61) %
11-deoxycorticosterone; Wk 4, 100 mg QD
  11-Deoxycorticosterone, Mean (SD) Observed: 9.5 (5.2) ng/dL
  11-Deoxycorticosterone, Mean (SD) Percent Change from Baseline: 16.18 (66.37) %
  11-Deoxycorticosterone, Mean Observed: 10.28 ng/dL
  11-Deoxycorticosterone, Mean Percent Change from Baseline: 6.02%
11-deoxycorticosterone; Wk 12, 12.5 mg BID
  11-Deoxycorticosterone, Mean (SD) Observed: 8.0 (0.0) ng/dL
  11-Deoxycorticosterone, Mean (SD) Percent Change from Baseline: 0.00 (0.00) %
11-deoxycorticosterone; Wk 12, 12.5 mg QD
  11-Deoxycorticosterone, Mean (SD) Observed: 9.2 (4.9) ng/dL
  11-Deoxycorticosterone, Mean (SD) Percent Change from Baseline: 11.96 (62.37) %
11-deoxycorticosterone; Wk 12, 25 mg BID
  11-Deoxycorticosterone, Mean (SD) Observed: 8.0 (0.0) ng/dL
  11-Deoxycorticosterone, Mean (SD) Percent Change from Baseline: 0.00 (0.00) %
11-deoxycorticosterone; Wk 12, 50 mg QD
  11-Deoxycorticosterone, Mean (SD) Observed: 8.5 (2.4) ng/dL
  11-Deoxycorticosterone, Mean (SD) Percent Change from Baseline: 3.01 (31.53) %
11-deoxycorticosterone; Wk 12, 100 mg QD
  11-Deoxycorticosterone, Mean (SD) Observed: 8.4 (2.0) ng/dL
  11-Deoxycorticosterone, Mean (SD) Percent Change from Baseline: 2.80 (28.58) %
11-deoxycorticosterone; Part 1 active treatment arms, Week 4
  11-deoxycorticosterone compared with placebo: Transient increases
11-deoxycorticosterone; Wk 10, 100 mg QD
  11-Deoxycorticosterone, Mean Observed: 8.00 ng/dL
  11-Deoxycorticosterone, Mean Percent Change from Baseline: −8.78%
11-deoxycorticosterone; summary of trial
  11-deoxycorticosterone levels: unaffected
Hypertensive subjects [1]; 25 mg BID, Part 1
  Increase in potassium levels relative to baseline: 0.341 mmol/L
Hypertensive subjects [1]; 50 mg QD (n = 28)
  Serum K+ Mean Change from Baseline to Wk 8: +0.25 mmol/L
  Individuals with increased serum K+, Mild 5.6-6.0 mMol/L (number): 1
  Individuals with increased serum K+, Mild 5.6-6.0 mMol/L (percent): (10.7%)
  Individuals with increased serum K+, Moderate 6.1-6.5 mMol/L: 0
Hypertensive subjects [1]; 100 mg QD (n = 61)
  Serum K+ Mean Change from Baseline to Wk 8: +0.29 mmol/L
  Individuals with increased serum K+, Mild 5.6-6.0 mMol/L (number): 8
  Individuals with increased serum K+, Mild 5.6-6.0 mMol/L (percent): (13.1%)
  Individuals with increased serum K+, Moderate 6.1-6.5 mMol/L: 1 (1.6%)
  Individuals with increased serum K+, Severe >6.5 mMol/L: 1 (1.6%)
Hypertensive subjects [1]; 100 mg QD, Part 1
  Number of individuals with verified or multiple increased serum K+ 5.2-5.5 mMol/L: 5
  Number of individuals with verified or multiple increased serum K+ 5.6-6.0 mMol/L: 3
  Number of individuals with verified or multiple increased serum K+ 6.1-6.5 mMol/L: 0
  Percent of individuals with verified or multiple increased serum K+ 5.2-5.5 mMol/L: (18.5%)
  Percent of individuals with verified or multiple increased serum K+ 5.6-6.0 mMol/L: (10.7%)
Hypertensive subjects [1]; 100 mg QD, Part 1, isolated incident not verified by repeat measurement
  Number of individuals with increased serum K+ >6.5 mMol/L: 1*
Hypertensive subjects [1]; 100 mg QD, Part 2
  Number of individuals with verified or multiple increased serum K+ 5.2-5.5 mMol/L: 1
  Number of individuals with verified or multiple increased serum K+ 5.6-6.0 mMol/L: 0
  Number of individuals with verified or multiple increased serum K+ 6.1-6.5 mMol/L: 0
  Number of individuals with verified or multiple increased serum K+ >6.5 mMol/L: 0
  Percent of individuals with verified or multiple increased serum K+ 5.2-5.5 mMol/L: (4%)
  Increase in potassium levels relative to baseline: 0.208 mmol/L
Hypertensive subjects [1]; 100 mg QD, Pooled
  Number of individuals with verified or multiple increased serum K+ 5.2-5.5 mMol/L: 6
  Number of individuals with verified or multiple increased serum K+ 5.6-6.0 mMol/L: 3
  Number of individuals with verified or multiple increased serum K+ 6.1-6.5 mMol/L: 0
  Number of individuals with verified or multiple increased serum K+ >6.5 mMol/L: 0
  Percent of individuals with verified or multiple increased serum K+ 5.2-5.5 mMol/L: (10.3%)
  Percent of individuals with verified or multiple increased serum K+ 5.6-6.0 mMol/L: (5.2%)
Hypertensive subjects [1]; All Active (n = 163)
  Individuals with increased serum K+, Mild 5.6-6.0 mMol/L (number): 16
  Individuals with increased serum K+, Mild 5.6-6.0 mMol/L (percent): (9.8%)
  Individuals with increased serum K+, Moderate 6.1-6.5 mMol/L: 4 (2.5%)
  Individuals with increased serum K+, Severe >6.5 mMol/L: 2*
Hypertensive subjects [1]; Part 1 (N 26)
  Change in group mean serum potassium (K+), Mean: +0.50 mMol/L
Hypertensive subjects [1]; Part 1, N 26*
  Change in group mean serum potassium (K+), Mean: +0.50 mMol/L
Hypertensive subjects [1]; Part 2 (N 31)
  Change in group mean serum potassium (K+), Mean: +0.23 mMol/L
Hypertensive subjects [1]; Part 2, N 31
  Change in group mean serum potassium (K+), Mean: +0.23 mMol/L
Hypertensive subjects [1]; Parts 1 and 2, listed as lorundrostat
  Subjects with transient elevated serum potassium greater than 6.0 mmol/L: seven
Hypertensive subjects [1]; Pooled (N 57)
  Change in group mean serum potassium (K+), Mean: +0.35 mMol/L
Hypertensive subjects [1]; Pooled, N 57
  Change in group mean serum potassium (K+), Mean: +0.35 mMol/L
Hypertensive subjects [1]; active treatment cohorts, Parts 1 and 2
  Serum potassium levels compared with placebo: increased
Hypertensive subjects [2]
  Vital signs, physical examination, ECG parameters: no notable findings
[3]; 12.5 mg BID
  Trough Plasma Concentration, Median: 26.1 ng/mL
[3]; 12.5 mg QD
  Trough Plasma Concentration, Median: 5.52 ng/mL
[3]; 25 mg BID
  Trough Plasma Concentration, Median: 52 ng/mL
[3]; 50 mg QD
  Trough Plasma Concentration, Median: 12.1 ng/mL
[3]; [4]
  concentration at 7 day: 52.3 ng/mL
  concentration at 28 day: 33.4 ng/mL
[3]; [5]
  concentration at 7 day: 11.6 ng/mL
  concentration at 28 day: 7.91 ng/mL
[3]; human, plasma, oral, 12.5 mg, 12.5 mg BID, read-out: Trough Plasma Concentration, Geo Mean
  concentration at 28 day: 10.7 ng/mL
[3]; human, plasma, oral, 12.5 mg, 12.5 mg BID, read-out: Trough Plasma Concentration, Median
  concentration at 28 day: 27.3 ng/mL
[3]; human, plasma, oral, 12.5 mg, 12.5 mg QD, read-out: Trough Plasma Concentration, Geo Mean
  concentration at 28 day: 5.77 ng/mL
[3]; human, plasma, oral, 12.5 mg, 12.5 mg QD, read-out: Trough Plasma Concentration, Median
  concentration at 28 day: 4.1 ng/mL
[3]; human, plasma, oral, 12.5 mg, Day 56, 12.5 mg BID, read-out: Trough Plasma Concentration, Geometric Mean
  concentration at 56 day: 18.5 ng/mL
